Laboratory results taken from ChEMBL document CHEMBL3046429, “Synthesis, molecular modeling study, preliminary antibacterial, and antitumor evaluation of N-substituted naphthalimides and their structural analogues” (2013).
Converted amounts (≈) assume the structure as drawn.

What was measured:
Assay type in all cases: functional
HOP-92 = assay: Growth inhibition of Homo sapiens (human) HOP92 cells at 10 uM after 48 hr by coulter counter analysis; settings: HOP-92, 48 h, read-out: GI
SNB-75 = assay: Growth inhibition of Homo sapiens (human) SNB75 cells at 10 uM after 48 hr by coulter counter analysis; settings: SNB-75, 48 h, read-out: GI
Staphylococcus aureus = assay: Antibacterial activity against Staphylococcus aureus assessed as growth inhibition after 24 hr by two fold serial dilution method; settings: for MIC: Staphylococcus aureus, 24 h
MCF7 = assay: Growth inhibition of Homo sapiens (human) MCF7 cells at 10 uM after 48 hr by coulter counter analysis; settings: MCF7, 48 h, read-out: GI
UO-31 = assay: Growth inhibition of Homo sapiens (human) UO31 cells at 10 uM after 48 hr by coulter counter analysis; settings: UO-31, 48 h, read-out: GI
Escherichia coli = assay: Antibacterial activity against Escherichia coli assessed as growth inhibition after 24 hr by two-fold serial dilution method; settings: for MIC: Escherichia coli, 24 h
Bacillus subtilis = assay: Antibacterial activity against Bacillus subtilis assessed as growth inhibition after 24 hr by two fold serial dilution method
Pseudomonas aeruginosa = assay: Antibacterial activity against Pseudomonas aeruginosa assessed as growth inhibition after 24 hr by two-fold serial dilution method
NCI-H522 = assay: Growth inhibition of Homo sapiens (human) NCI-H522 cells at 10 uM after 48 hr by coulter counter analysis; settings: NCI-H522, 48 h, read-out: GI
SN12C = assay: Growth inhibition of Homo sapiens (human) SN12C cells at 10 uM after 48 hr by coulter counter analysis; settings: read-out: GI

In the case of `O=C(O)c1ccc(-n2c(=O)c3ccccc3c3ccccc3c2=O)cc1`, the inhibition of growth at 10 µM (HOP-92) is reported as 10.1%, the inhibition of growth at 10 µM (SNB-75) is reported as 11% and the “-logMIC” value (Staphylococcus aureus) is reported as 5.19. The MIC (Staphylococcus aureus) was 2.2 µg/mL (≈ 6.41 µM), the inhibition of growth at 10 µM (MCF7) was 10.1% and the inhibition of growth at 10 µM (UO-31) was 15.4%. For the same molecule, the “-logMIC” value (Escherichia coli) was 4.91, the MIC (Escherichia coli) was 4.2 µg/mL (≈ 12.2 µM) and the MIC (Bacillus subtilis) was 2 µg/mL (≈ 5.83 µM). The MIC (Pseudomonas aeruginosa) was > 100 µg/mL, the inhibition of growth at 10 µM (NCI-H522) was 7.66% and the inhibition of growth at 10 µM (SN12C) was 6.3%.

`O=C(O)c1ccc(N2C(=O)c3cccc4cccc(c34)C2=O)cc1` was tested, and the “-logMIC” value (Staphylococcus aureus) was 5.3, the MIC (Staphylococcus aureus) was 1.6 µg/mL (≈ 5.04 µM) and the “-logMIC” value (Escherichia coli) was 4.91. The MIC (Escherichia coli) was 3.9 µg/mL (≈ 12.3 µM), the MIC (Bacillus subtilis) was 2 µg/mL (≈ 6.3 µM) and the MIC (Pseudomonas aeruginosa) was > 100 µg/mL.

In the case of `COc1cc(N2C(=O)c3nccnc3C2=O)cc(OC)c1OC`, the inhibition of growth at 10 µM (HOP-92) is reported as 10.2%, the inhibition of growth at 10 µM (SNB-75) is reported as -2.75% and the “-logMIC” value (Staphylococcus aureus) is reported as 4.56. It also gave an MIC (Staphylococcus aureus) of 8.7 µg/mL (≈ 27.6 µM), an inhibition of growth at 10 µM (MCF7) of 4.31% and an inhibition of growth at 10 µM (UO-31) of 12.5%. For the same molecule, the “-logMIC” value (Escherichia coli) was 4.54, the MIC (Escherichia coli) was 9 µg/mL (≈ 28.5 µM) and the MIC (Bacillus subtilis) was 9 µg/mL (≈ 28.5 µM). For the same molecule, the MIC (Pseudomonas aeruginosa) was > 100 µg/mL, the inhibition of growth at 10 µM (NCI-H522) was 4.82% and the inhibition of growth at 10 µM (SN12C) was 5.86%.

In the case of `COc1cc(N2C(=O)c3cccc4cccc(c34)C2=O)cc(OC)c1OC`, the “-logMIC” value (Staphylococcus aureus) is reported as 5.26, the MIC (Staphylococcus aureus) is reported as 2 µg/mL (≈ 5.5 µM) and the “-logMIC” value (Escherichia coli) is reported as 5.16. For the same molecule, the MIC (Escherichia coli) was 2.5 µg/mL (≈ 6.88 µM), the MIC (Bacillus subtilis) was 2.2 µg/mL (≈ 6.05 µM) and the MIC (Pseudomonas aeruginosa) was > 100 µg/mL.

For `COc1cc(-n2c(=O)c3ccccc3c3ccccc3c2=O)cc(OC)c1OC`, the “-logMIC” value (Staphylococcus aureus) was 5.19, the MIC (Staphylococcus aureus) was 2.5 µg/mL (≈ 6.42 µM) and the “-logMIC” value (Escherichia coli) was 5.19. The MIC (Escherichia coli) was 2.5 µg/mL (≈ 6.42 µM), the MIC (Bacillus subtilis) was 2.5 µg/mL (≈ 6.42 µM) and the MIC (Pseudomonas aeruginosa) was > 100 µg/mL.

With `O=c1c2ccccc2c2ccccc2c(=O)n1CCc1ccccn1` the inhibition of growth at 10 µM (HOP-92) was 13.5%, the inhibition of growth at 10 µM (SNB-75) was 13.1% and the “-logMIC” value (Staphylococcus aureus) was 3.53. For the same molecule, the MIC (Staphylococcus aureus) was > 100 µg/mL, the inhibition of growth at 10 µM (MCF7) was 28.3% and the inhibition of growth at 10 µM (UO-31) was 32.5%. For the same molecule, the “-logMIC” value (Escherichia coli) was 3.53, the MIC (Escherichia coli) was > 100 µg/mL and the MIC (Bacillus subtilis) was > 100 µg/mL. The MIC (Pseudomonas aeruginosa) was > 100 µg/mL, the inhibition of growth at 10 µM (NCI-H522) was 11.4% and the inhibition of growth at 10 µM (SN12C) was 8.53%.

For `O=c1c2ccccc2c2ccccc2c(=O)n1CCN1CCOCC1`, the “-logMIC” value (Staphylococcus aureus) was 3.52, the MIC (Staphylococcus aureus) was > 100 µg/mL and the “-logMIC” value (Escherichia coli) was 3.52. For the same molecule, the MIC (Escherichia coli) was > 100 µg/mL, the MIC (Bacillus subtilis) was > 100 µg/mL and the MIC (Pseudomonas aeruginosa) was > 100 µg/mL.

With `O=c1c2ccccc2c2ccccc2c(=O)n1-c1ccc([N+](=O)[O-])cc1[N+](=O)[O-]` the inhibition of growth at 10 µM (HOP-92) was 26.4%, the inhibition of growth at 10 µM (SNB-75) was 28.6% and the “-logMIC” value (Staphylococcus aureus) was 5.25. For the same molecule, the MIC (Staphylococcus aureus) was 2.2 µg/mL (≈ 5.65 µM), the inhibition of growth at 10 µM (MCF7) was -0.39% and the inhibition of growth at 10 µM (UO-31) was 18.1%. The “-logMIC” value (Escherichia coli) was 4.99, the MIC (Escherichia coli) was 4 µg/mL (≈ 10.3 µM) and the MIC (Bacillus subtilis) was 2.3 µg/mL (≈ 5.91 µM). For the same molecule, the MIC (Pseudomonas aeruginosa) was > 100 µg/mL, the inhibition of growth at 10 µM (NCI-H522) was 5.5% and the inhibition of growth at 10 µM (SN12C) was 1.4%.

For `COc1cc(OC)c(-n2c(=O)c3ccccc3c3ccccc3c2=O)c(OC)c1`, the “-logMIC” value (Staphylococcus aureus) was 5.19, the MIC (Staphylococcus aureus) was 2.5 µg/mL (≈ 6.42 µM) and the “-logMIC” value (Escherichia coli) was 5.19. The MIC (Escherichia coli) was 2.5 µg/mL (≈ 6.42 µM), the MIC (Bacillus subtilis) was 2.5 µg/mL (≈ 6.42 µM) and the MIC (Pseudomonas aeruginosa) was > 100 µg/mL.

In the case of `Cc1cc(Cl)c(-n2c(=O)c3ccccc3c3ccccc3c2=O)c(Cl)c1`, the inhibition of growth at 10 µM (HOP-92) is reported as 1.58%, the inhibition of growth at 10 µM (SNB-75) is reported as 10.1% and the “-logMIC” value (Staphylococcus aureus) is reported as 4.29. For the same molecule, the MIC (Staphylococcus aureus) was 19.5 µg/mL (≈ 51 µM), the inhibition of growth at 10 µM (MCF7) was 1.96% and the inhibition of growth at 10 µM (UO-31) was 34.7%. The “-logMIC” value (Escherichia coli) was 5.17, the MIC (Escherichia coli) was 2.6 µg/mL (≈ 6.8 µM) and the MIC (Bacillus subtilis) was 19.2 µg/mL (≈ 50.2 µM). It also gave an MIC (Pseudomonas aeruginosa) of 10 µg/mL (≈ 26.2 µM), an inhibition of growth at 10 µM (NCI-H522) of 1.31% and an inhibition of growth at 10 µM (SN12C) of 14.8%.

`O=c1c2ccccc2c2ccccc2c(=O)n1-c1c(Cl)cc(Cl)cc1Cl` was tested, and the inhibition of growth at 10 µM (HOP-92) was 33.6%, the inhibition of growth at 10 µM (SNB-75) was 45.6% and the “-logMIC” value (Staphylococcus aureus) was 4.33. It also gave an MIC (Staphylococcus aureus) of 19 µg/mL (≈ 47.2 µM), an inhibition of growth at 10 µM (MCF7) of -1.42% and an inhibition of growth at 10 µM (UO-31) of 10.8%. The “-logMIC” value (Escherichia coli) was 5.22, the MIC (Escherichia coli) was 2.4 µg/mL (≈ 5.96 µM) and the MIC (Bacillus subtilis) was 18.5 µg/mL (≈ 45.9 µM). The MIC (Pseudomonas aeruginosa) was 10 µg/mL (≈ 24.8 µM), the inhibition of growth at 10 µM (NCI-H522) was 4.08% and the inhibition of growth at 10 µM (SN12C) was -1.37%.

With `O=C1c2nccnc2C(=O)N1c1ccc([N+](=O)[O-])cc1` the “-logMIC” value (Staphylococcus aureus) was 4.48, the MIC (Staphylococcus aureus) was 8.9 µg/mL (≈ 32.9 µM) and the “-logMIC” value (Escherichia coli) was 4.41. The MIC (Escherichia coli) was 10.5 µg/mL (≈ 38.9 µM), the MIC (Bacillus subtilis) was 8.5 µg/mL (≈ 31.5 µM) and the MIC (Pseudomonas aeruginosa) was > 100 µg/mL.

With `O=C1c2nccnc2C(=O)N1c1ccc([N+](=O)[O-])cc1[N+](=O)[O-]` the inhibition of growth at 10 µM (HOP-92) was -28.1%, the inhibition of growth at 10 µM (SNB-75) was 11.4% and the “-logMIC” value (Staphylococcus aureus) was 4.57. The MIC (Staphylococcus aureus) was 8.4 µg/mL (≈ 26.6 µM), the inhibition of growth at 10 µM (MCF7) was 3.56% and the inhibition of growth at 10 µM (UO-31) was 15.3%. For the same molecule, the “-logMIC” value (Escherichia coli) was 4.46, the MIC (Escherichia coli) was 10.9 µg/mL (≈ 34.6 µM) and the MIC (Bacillus subtilis) was 8 µg/mL (≈ 25.4 µM). For the same molecule, the MIC (Pseudomonas aeruginosa) was > 100 µg/mL, the inhibition of growth at 10 µM (NCI-H522) was 3.89% and the inhibition of growth at 10 µM (SN12C) was 6.83%.
